Data on five molecules can be found in US20210255193A1, “LYSINE REACTIVE PROBES AND USES THEREOF” (The Scripps Research Institute, priority 2017, published 2021).

Assay in all cases: competitive isoTOP-ABPP
Assay type in all cases: binding

Assay [1] has as its target T1, RPL10 60S ribosomal protein L10 (Homo sapiens, UniProt P27635).
T1 construct: isoTOP-ABPP experiments performed in cell lysates (in vitro); endogenous in cells; host or cells: soluble proteome of human cancer cell lines (MDA-MB-231; Ramos and Jurkat also prepared)
The method, boiled down:
(§1)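 Probe: STP-alkyne, 0.1 mM, 1 h RT, after fragment pretreatment of lysate (esters 50 μM; guanidinylators 100 μM). Tags: light = compound, heavy = DMSO, via CuAAC. Replicates averaged if SD <60% of mean; otherwise lowest ratio used when any R <4.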

Assay [2] has as its target T2, GBAS Protein NipSnap homolog 2 (Homo sapiens, UniProt O75323).
T2 construct: isoTOP-ABPP experiments performed in cell lysates (in vitro); endogenous in cells; host or cells: MDA-MB-231 soluble lysate
T2 sequence (O75323 24-286): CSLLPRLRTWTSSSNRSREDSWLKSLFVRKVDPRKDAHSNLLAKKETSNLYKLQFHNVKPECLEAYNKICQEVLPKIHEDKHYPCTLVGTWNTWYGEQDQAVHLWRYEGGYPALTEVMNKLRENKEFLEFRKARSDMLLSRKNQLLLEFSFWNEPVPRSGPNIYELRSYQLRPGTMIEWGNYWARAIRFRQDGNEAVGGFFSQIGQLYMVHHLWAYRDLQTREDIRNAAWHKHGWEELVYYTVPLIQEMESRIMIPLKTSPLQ
The method, boiled down: as §1

The next assay concerns the target T3, FAH Fumarylacetoacetase (Homo sapiens, UniProt P16930).
T3 construct: isoTOP-ABPP experiments performed in cell lysates (in vitro); endogenous in cells; host or cells: soluble proteome of human cancer cell lines (MDA-MB-231; Ramos and Jurkat also prepared)
T3 sequence (P16930 1-419): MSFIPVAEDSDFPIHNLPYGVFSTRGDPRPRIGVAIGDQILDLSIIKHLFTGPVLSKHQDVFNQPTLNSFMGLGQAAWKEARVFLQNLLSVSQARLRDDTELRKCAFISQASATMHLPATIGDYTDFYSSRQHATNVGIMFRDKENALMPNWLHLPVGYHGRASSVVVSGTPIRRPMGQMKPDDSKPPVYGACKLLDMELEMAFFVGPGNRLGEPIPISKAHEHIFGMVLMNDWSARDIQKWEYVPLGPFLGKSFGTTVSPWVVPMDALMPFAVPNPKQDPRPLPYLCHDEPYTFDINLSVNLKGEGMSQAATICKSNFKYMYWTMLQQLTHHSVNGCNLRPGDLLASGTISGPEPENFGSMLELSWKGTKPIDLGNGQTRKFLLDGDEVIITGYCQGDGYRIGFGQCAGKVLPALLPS
The essentials:
as §1

The target of assay [3] is T4, GTPBP3 tRNA modification GTPase GTPBP3, mitochondrial (Homo sapiens, UniProt Q969Y2).
T4 construct: isoTOP-ABPP experiments performed in cell lysates (in vitro); endogenous in cells; host or cells: soluble proteome of human cancer cell lines (MDA-MB-231; Ramos and Jurkat also prepared)
T4 sequence (Q969Y2 21-492): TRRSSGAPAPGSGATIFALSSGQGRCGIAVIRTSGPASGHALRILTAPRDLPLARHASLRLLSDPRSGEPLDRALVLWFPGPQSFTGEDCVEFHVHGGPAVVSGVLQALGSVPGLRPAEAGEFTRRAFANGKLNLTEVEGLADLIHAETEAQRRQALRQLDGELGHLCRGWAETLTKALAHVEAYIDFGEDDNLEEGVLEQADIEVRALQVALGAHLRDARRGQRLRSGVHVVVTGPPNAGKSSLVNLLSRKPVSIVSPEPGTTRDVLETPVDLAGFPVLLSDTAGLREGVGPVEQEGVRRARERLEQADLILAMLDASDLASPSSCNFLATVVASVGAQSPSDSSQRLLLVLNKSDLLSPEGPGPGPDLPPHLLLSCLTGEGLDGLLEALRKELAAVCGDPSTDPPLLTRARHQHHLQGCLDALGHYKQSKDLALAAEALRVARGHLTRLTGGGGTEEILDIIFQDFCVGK
The essentials: as §1

Regarding `O=C(CCc1ccc2c(c1)OCO2)Oc1ccc([N+](=O)[O-])cc1[N+](=O)[O-]` [fragment 45, 2,4-Dinitrophenyl 3-(benzo[d][1,3]dioxol-5-yl)propanoate], in assay [1] (50 uM_231_sol_in vitro), the “isoTOP-ABPP ratio, lysine P27635_K121” value came to 1.8. In addition, the “isoTOP-ABPP ratio, lysine O75323_K75” value in assay [2] (50 uM_231_sol_in vitro) came out at 5.0. Moreover, the “isoTOP-ABPP ratio, lysine P16930_K241” value at FAH Fumarylacetoacetase (50 uM_231_sol_in vitro) is listed as 1.3. Further, the “isoTOP-ABPP ratio, lysine Q969Y2_K492” value in assay [3] (50 uM_231_sol_in vitro) turned out to be 1.4.

With `O=C(ON1C(=O)CCC1=O)c1cc(C(F)(F)F)cc(C(F)(F)F)c1` [fragment 46, 3,5-Bis(trifluoromethyl)benzoic acid NHS ester], in assay [1] (50 uM_231_sol_in vitro), the “isoTOP-ABPP ratio, lysine P27635_K121” value came out at 0.8. In assay [2] (50 uM_231_sol_in vitro), the “isoTOP-ABPP ratio, lysine O75323_K75” value is 0.9. On FAH Fumarylacetoacetase (50 uM_231_sol_in vitro), the “isoTOP-ABPP ratio, lysine P16930_K241” value was 8.1. The “isoTOP-ABPP ratio, lysine Q969Y2_K492” value in assay [3] (50 uM_231_sol_in vitro) is 1.9.

With `O=C(Oc1c(F)c(F)c(C(F)(F)F)c(F)c1F)c1cc(C(F)(F)F)cc(C(F)(F)F)c1` [fragment 47, 2,3,5,6-Tetrafluoro-4-(trifluoromethyl)phenyl 3,5-bis(trifluoromethyl)benzoate], the “isoTOP-ABPP ratio, lysine P27635_K121” value in assay [1] (50 uM_231_sol_in vitro) came to 1.1. Also, in assay [2] (50 uM_231_sol_in vitro), the “isoTOP-ABPP ratio, lysine O75323_K75” value came out at 1.0. In addition, the “isoTOP-ABPP ratio, lysine P16930_K241” value at FAH Fumarylacetoacetase (50 uM_231_sol_in vitro) was determined as 1.2. Further, the “isoTOP-ABPP ratio, lysine Q969Y2_K492” value in assay [3] (50 uM_231_sol_in vitro) is recorded as 1.7.

For `O=C(Oc1c(F)c(F)cc(F)c1F)c1cc(C(F)(F)F)cc(C(F)(F)F)c1` [fragment 48, 2,3,5,6-Tetrafluorophenyl 3,5-bis(trifluoromethyl)benzoate], in assay [1] (50 uM_231_sol_in vitro), the “isoTOP-ABPP ratio, lysine P27635_K121” value is given as 0.8. In addition, the “isoTOP-ABPP ratio, lysine O75323_K75” value in assay [2] (50 uM_231_sol_in vitro) stood at 0.9. Also, the “isoTOP-ABPP ratio, lysine P16930_K241” value at FAH Fumarylacetoacetase (50 uM_231_sol_in vitro) is given as 2.3. The “isoTOP-ABPP ratio, lysine Q969Y2_K492” value in assay [3] (50 uM_231_sol_in vitro) came out at 1.4.

`CC(C)(C)OC(=O)N=C(NC(=O)OC(C)(C)C)n1cccn1` [fragment 50, reference compound]: in assay [1] (100 uM_231_sol_in vitro), the “isoTOP-ABPP ratio, lysine P27635_K121” value turned out to be 1.0. Also, the “isoTOP-ABPP ratio, lysine O75323_K75” value in assay [2] (100 uM_231_sol_in vitro) was found to be 1.3. The “isoTOP-ABPP ratio, lysine P16930_K241” value at FAH Fumarylacetoacetase (100 uM_231_sol_in vitro) came to 1.5. For the same molecule, the “isoTOP-ABPP ratio, lysine Q969Y2_K492” value in assay [3] (100 uM_231_sol_in vitro) is recorded as 0.9.
